Assay results from patent publication US20230044602A1, “CANCER SIGNATURES, METHODS OF GENERATING CANCER SIGNATURES, AND USES THEREOF” (EDWARD VIA COLLEGE OF OSTEOPATHIC MEDICINE, priority 2019, published 2023).

How the values were obtained:
NSCLC and GBM = details: Refs. 83-85; cited from earlier work
[1] = Refs. 3 and 11; cited from earlier work
GBM patients = assay: Disease-free survival of PGS-stratified TCGA GBM patients treated with or without TMZ; assay type: in vivo, human; details: TCGA training cohort
Description: Clinical data on adjuvant chemotherapy (ACT) or TMZ administration for the TOGA training cohorts were retrieved from the NCI GDC data portal, and the Buffa hypoxia scores for each patient were retrieved from TOGA PanCancer Atlas through cBioPortal (Ref. 54). Differences in patient benefit from treatment across risk groups were assessed using one-tailed two-sample t-tests on unequal variances and Fisher's Exact Tests. Two-tailed two-sample t-tests on unequal variances assessed the correlation of PGS risk stratification with tumor hypoxia in NSCLC.

| Compound | efficacy in treating NSCLC and GBM (NSCLC and GBM) | penetration through the blood-brain barrier [1] | average DFS time (GBM patients; high-risk progression GBM patients (GBM-PGS) treated with TMZ) [months] | average DFS time (GBM patients; low-risk progression GBM patients (GBM-PGS) treated with TMZ) [months] |
| --- | --- | --- | --- | --- |
| Cc1cc(Nc2nc(N[C@@H](C)c3ncc(F)cn3)ncc2Cl)n[nH]1 [AZD1480] | promising efficacy | – | – | – |
| Cn1nnc2c(C(N)=O)ncn2c1=O [TMZ, Temozolomide] | – | efficient penetration | 10.80 | 16.52 |
| NS(=O)(=O)c1cccc2c1C(=O)c1cccc(O)c1C2=O [LLL12] | promising efficacy | – | – | – |
